Where two headings read alike, the source gives them in different places.
How the values were obtained:
[1] = test system: NUGC-3 cells; test: NUGC-3 cell proliferation assay (CTG, 7 days); type: cell-based, human; conditions: Homo sapiens, NUGC-3, 168 h
Summary of the method: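 Cells (200/well) in 1640 medium with 10% serum exposed to 10-point, 3-fold DMSO dilutions (duplicates) for 7 days at 37°C. Viability read by CellTiter-Glo luminescence; % inhibition normalized to DMSO and blank, IC50 from variable-slope nonlinear fit.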

[2] = target: CYP 3A4 enzyme in human liver microsomes (Homo sapiens, UniProt P08684); test: CYP3A4 inhibition experiment in human liver microsomes
Method: The inhibitory effects of the test compounds on CYP 3A4T (with testosterone as substrate) and 3A4M (with midazolam as substrate) in human liver microsomes were evaluated in vitro to assess the medication safety of the compounds.
This study used the human liver microsome system and the cytochrome P450 enzyme probe substrate recommended by FDA guidelines for in vitro drug interaction studies to investigate the inhibition of the CYP 3A4 enzyme in human liver microsomes by the test compounds.
Test group (TG): Human liver microsomes were incubated with different concentrations of test compounds, NADPH (final concentration 2.00 mM) and probe substrates of different sub-enzymes (Table 4) for 5 min.
Positive control group (PC): Human liver microsomes were incubated with inhibitors (Table 4), NADPH (final concentration 2.00 mM) and probe substrates of different sub-enzymes (Table 4) for 5 min. Table 4 Probe substrates of sub-enzymes, inhibitors and incubation systems
The system was pre-incubated at 37°C for 5 min, and then 15 µL of 8 mM NADPH solution preheated at 37°C for 5-10 min to start the reaction. After incubation of the 96-well plate at 37°C for 5 min, 180 µL of acetonitrile:methanol (ACN:MeOH=1:1) solution containing internal standard (IS) was added to terminate the reaction. […] 80 µL of the supernatant was taken, added to 120 µL of ultrapure water, shaken evenly, and then detected by LC-MS/MS.
199 µL of 0.2 mg/mL HLM and 1 µL of 1 mM positive control inhibitor (ketoconazole) working solutions were taken and mixed evenly. 30 µL of the drug-containing liver microsome solution was taken and added to a 96-well plate, then 10 µL of substrate working solution (20 µM midazolam) was added, in duplicate. The system was pre-incubated at 37°C for 5 min, and then 15 µL of 8 mM NADPH solution preheated at 37°C for 5-10 min to start the reaction. After incubation of the 96-well plate at 37°C for 5 min, 180 µL of ACN:MeOH(1:1) solution containing IS was added to terminate the reaction. […] 80 µL of the supernatant was taken, added to 120 µL of ultrapure water, shaken evenly, and then detected by LC-MS/MS.
4.2.5.1 The relative activity of CYP450 sub-enzymes at different concentrations was calculated by dividing the peak area ratio (analyte peak area/internal standard peak area) of metabolites in the presence of the test sample or positive control by the peak area ratio of metabolites in the solvent control sample in the absence of the test article or positive control, according to the following formula: [formula] [formula]
4.2.5.2 Half maximal inhibitory concentration (IC50) was obtained by fitting according to the following model formula using Prism software: Y = Bottom + (Top−Bottom)/(1+10^(∧)((LogIC50−X)×HillSlope)) [formula]
X is the test sample concentration converted to logarithm (Log µM), Y is the relative activity (% of NC), Bottom and Top represent the percentage of enzyme activity at the bottom platform and top platform of the curve, respectively, and HillSlope represents the slope; to optimize the fitting effect, the use of other (nonlinear) dose-response models for fitting is not considered as a deviation from the protocol.

[3] = target: T1, p53-Y220C mutant protein (Homo sapiens, UniProt P04637, Y220C); test: In vitro DNA binding activity assay (TR-FRET); type: biochemical; conditions: concentration required to increase the binding activity of protein to DNA by 50%
T1 construct: The recombinant Y220C p53 DBD protein with his-tag
Summary of the method: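 His-tagged Y220C p53 DBD was equilibrated with compound 60 min at room temperature, then biotin-DNA, anti-6His-Eu and streptavidin-d2 were added and incubated overnight in the dark. TR-FRET 665/615 nm ratio, background-corrected, was expressed as % activity versus vehicle; SC150 is the concentration raising DNA binding by 50%.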

[4] = CYP 3A4M IC50, human liver microsomes, midazolam as substrate
[5] = CYP 3A4T IC50, human liver microsomes, testosterone as substrate

CYP 3A4 enzyme in human liver microsomes, sequence (P08684 whole entry): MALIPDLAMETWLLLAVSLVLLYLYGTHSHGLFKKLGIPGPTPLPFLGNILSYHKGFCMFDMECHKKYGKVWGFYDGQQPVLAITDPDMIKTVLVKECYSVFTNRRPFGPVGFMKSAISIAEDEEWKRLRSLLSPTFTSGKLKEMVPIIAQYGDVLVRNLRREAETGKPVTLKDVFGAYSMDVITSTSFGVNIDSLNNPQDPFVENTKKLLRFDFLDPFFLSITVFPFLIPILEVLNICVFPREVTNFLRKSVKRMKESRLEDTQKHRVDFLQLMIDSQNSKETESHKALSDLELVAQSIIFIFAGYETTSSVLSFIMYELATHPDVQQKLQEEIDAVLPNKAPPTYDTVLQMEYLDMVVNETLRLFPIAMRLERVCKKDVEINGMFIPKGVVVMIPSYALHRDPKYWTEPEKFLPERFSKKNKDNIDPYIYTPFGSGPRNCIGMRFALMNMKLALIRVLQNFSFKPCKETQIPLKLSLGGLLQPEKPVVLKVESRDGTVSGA

| SMILES | IC50 ([1]; NUGC-3 cell proliferation, 7 days, CTG, read-out: IC50) [µM] | IC50 [2, 4] [µM] | IC50 [2, 5] [µM] | SC150 [3] [nM] | IC50 [1] [µM] |
| --- | --- | --- | --- | --- | --- |
| CCN1CC[C@@H](Nc2cccc3c(CC(F)(F)F)c(C#CCNC(=O)c4cnn(C(C)(C)C)c4N)nn23)[C@@H](F)C1 [Compound 353, 5-amino-1-tert-butyl-N-[3-(7-{[(3S,4R)-1-ethyl-3-fluoropiperidin-4-yl]amino}-3-(2,2,2-trifluoroethyl)pyrazolo[1,5-a]pyridin-2-yl)prop-2-yn-1-yl]-1H-pyrazole-4-carboxamide] | 0.152 | 22.3 | 26.5 | 4 | – |
| CC(C)N1CC[C@@H](Nc2cccc3c(CC(F)(F)F)c(C#CCNC(=O)c4cnn(C(C)(C)C)c4N)nn23)[C@@H](F)C1 [Compound 354] | – | 15.6 | 18.5 | 3 | 0.177 |
